The target of experiment [1] is T1, second (BD2: amino acids E352-E168) bromodomain of BRD4 (Homo sapiens, UniProt O60885).
T1 construct: protocol
The experiment can be described thus: TR-FRET bromodomain binding assay, BRD4 BD2. Conditions: TR-FRET assay protocol (A-G, compound concentration range); Ki calculated from IC50, probe Kd and probe concentration; read-out: TR-FRET Binding Ki: BRD4 (BDII_E352-M457). The method, boiled down:
(§1)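 Values are Ki: IC50s from TR-FRET competition with an Alexa647-labeled BET-inhibitor probe were converted using probe Kd and probe concentration. Purified His-tagged bromodomain; pH 6.0 sodium phosphate buffer.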

The test system of experiment [2] is breast cancer cell line MX-1. Kind of experiment: MX-1 cell line proliferation assay (3-day). Format: cell-based. As to conditions: Homo sapiens, MX1; MX-1 cells, 72 h incubation, Cell Titer Glo; read-out: Cellular proliferation: EC50. The gist of the method:
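EC50 derived by sigmoidal fitting of Cell Titer Glo signal relative to DMSO controls. Compound, 3 μM down to 0.0001 μM final in 3-fold steps, was added to adhered MX-1 cells (5000/well, RPMI + 10% FBS) for a 3-day incubation at 37° C.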
Background: In ATP-based viability assays light output follows the ATP content of the culture.

The target of experiment [3] is T2, first (BD1: amino acids K57-E168) bromodomain of BRD4 (Homo sapiens, UniProt O60885).
T2 construct: His-tagged first (BD1: amino acids K57-E168)
Kind of experiment: TR-FRET bromodomain binding assay, BRD4 BD1. As to conditions: TR-FRET assay protocol (A-G, compound concentration range); Ki calculated from IC50, probe Kd and probe concentration; read-out: TR-FRET Binding Ki: BRD4 (BDI_K57-E168). The method, boiled down:
as §1

Here are results for eleven compounds from US9561231B2 (AbbVie Inc., priority 2012, dated 2017).

Where only a bound is given, the exact number is not on record here.

The term Ki denotes the dissociation constant of the complex between target and ligand, obtained from inhibition or displacement. Take `C=CC#Cc1ccccc1Oc1ccc(S(=O)(=O)CC)cc1-c1cn(C)c(=O)cc1O` [Example 313, 5-{2-[2-(but-3-en-1-yn-1-yl)phenoxy]-5-(ethylsulfonyl)phenyl}-4-hydroxy-1-methylpyridin-2(1H)-one]: the Ki in experiment [1] was 0.0552 µM; in experiment [3] it was 0.754 µM. Moreover, in experiment [2], the EC50 is 1.33 µM.
For `CCS(=O)(=O)Nc1ccc(Oc2ccc(F)cc2F)c(-c2cc(Cl)c(=O)n(C)c2)c1` [Example 283, N-[3-(5-chloro-1-methyl-6-oxo-1,6-dihydropyridin-3-yl)-4-(2,4-difluorophenoxy)phenyl]ethanesulfonamide], in that order: 0.0394 µM, 0.0174 µM and 0.194 µM.
For `CN1CCN(Cc2ccc(-c3cc(=O)n(C)nc3-c3cc(NS(C)(=O)=O)ccc3Oc3ccccc3)cc2)CC1` [Example 62, N-[3-(1-methyl-4-{4-[(4-methylpiperazin-1-yl)methyl]phenyl}-6-oxo-1,6-dihydropyridazin-3-yl)-4-phenoxyphenyl]methanesulfonamide], in that order: 0.00513 µM, 0.00749 µM and 0.281 µM.
Taken in the same sequence, the figures for `CCNC(=O)Nc1ccc(Oc2ccccc2)c(-c2nn(C)c(=O)cc2OC)c1` [Example 30, 1-ethyl-3-[3-(4-methoxy-1-methyl-6-oxo-1,6-dihydropyridazin-3-yl)-4-phenoxyphenyl]urea] were 1.33 µM, more than 2.38 µM and 12.9 µM.
`Cn1cc(-c2cc(NC(=O)CNC(=O)OC(C)(C)C)ccc2Oc2ccccc2)ccc1=O` [Example 252, tert-butyl (2-{[3-(1-methyl-6-oxo-1,6-dihydropyridin-3-yl)-4-phenoxyphenyl]amino}-2-oxoethyl)carbamate]: the Ki in experiment [1] is 0.695 µM; in experiment [3] it was 0.297 µM. Also, the EC50 in experiment [2] was more than 3 µM.
As to `CCS(=O)(=O)Nc1ccc(Oc2ccc(F)cc2F)c(-c2cn(C)c(=O)cc2OC2COC2)c1` [Example 316, N-{4-(2,4-difluorophenoxy)-3-[1-methyl-4-(oxetan-3-yloxy)-6-oxo-1,6-dihydropyridin-3-yl]phenyl}ethanesulfonamide], the Ki in experiment [1] was 0.000809 µM; in experiment [3], 0.0039 µM. The EC50 in experiment [2] was determined as 0.0247 µM.
On to `Cn1nc(-c2ccccc2Oc2ccccc2)c(-c2ccc(CNS(C)(=O)=O)cc2)cc1=O` [Example 98, N-{4-[1-methyl-6-oxo-3-(2-phenoxyphenyl)-1,6-dihydropyridazin-4-yl]benzyl}methanesulfonamide], for which the Ki in experiment [1] is 0.0712 µM; in experiment [3], 0.216 µM. For the same compound, the EC50 in experiment [2] is 0.639 µM.
For `COc1cc(=O)n(C)cc1-c1cc(NS(C)(=O)=O)ccc1Oc1ccccc1` [Example 259, N-[3-(4-methoxy-1-methyl-6-oxo-1,6-dihydropyridin-3-yl)-4-phenoxyphenyl]methanesulfonamide], in that order: 0.00941 µM, 0.0286 µM and 0.13 µM.
For `Cn1cc(-c2cc(NS(C)(=O)=O)ccc2Oc2cccc(C(F)(F)F)c2)ccc1=O` [Example 244, N-{3-(1-methyl-6-oxo-1,6-dihydropyridin-3-yl)-4-[3-(trifluoromethyl)phenoxy]phenyl}methanesulfonamide], in that order: 0.282 µM, 0.116 µM and 0.481 µM.
As to `CNC(=O)c1ccc(-c2cc(=O)n(C)nc2-c2ccccc2Oc2ccccc2)cc1` [Example 127, N-methyl-4-[1-methyl-6-oxo-3-(2-phenoxyphenyl)-1,6-dihydropyridazin-4-yl]benzamide], the Ki was 0.139 µM in experiment [1] and 0.249 µM in experiment [3]. Further, the EC50 in experiment [2] is more than 3 µM.
For `CCS(=O)(=O)Nc1ccc(OC2CCC(F)(F)CC2)c(-c2c[nH]c(=O)c(C)c2)c1` [Example 267, N-{4-[(4,4-difluorocyclohexyl)oxy]-3-(5-methyl-6-oxo-1,6-dihydropyridin-3-yl)phenyl}ethanesulfonamide], in that order: 0.101 µM, 0.0478 µM and more than 3 µM.
